# Laboratory results published in the supplement of paper PMC10307832.
# What was measured:
# Test in all cases: relative viability (nuclei count vs DMSO), 5 days (fraction); higher = more cells survive
# LCLC-97TM1 = tested on: LCLC-97TM1
# Outline: (§1)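 Relative viability equals treated-well nuclei counts divided by vehicle-well nuclei counts. Counts came from 4× images of lung cancer cell lines grown in 1536-well plates for 5 days after pin-tool dosing on the day after seeding. Dosing used one drug alone or a fixed anchor-drug dose plus five library-drug doses (not always all listed) in √10 steps, and values are medians of duplicate plates.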
# NCI-H1355 = tested on: NCI-H1355
# Outline: as §1
# HCC-44 = tested on: HCC-44
# Outline: as §1
# NCI-H2405 = tested on: NCI-H2405
# Outline: as §1
# NCI-H23 = tested on: NCI-H23
# Outline: as §1
# UMC-11 = tested on: UMC-11
# Outline: as §1
# NCI-H322M = tested on: NCI-H322M
# Outline: as §1
# NCI-H1944 = tested on: NCI-H1944
# Outline: as §1
# NCI-H1395 = tested on: NCI-H1395
# Outline: as §1
# NCI-H1651 = tested on: NCI-H1651
# Outline: as §1
# EMC-BAC-2 = tested on: EMC-BAC-2
# Outline: as §1
# NCI-H650 = tested on: NCI-H650
# Outline: as §1
compound,measurement,setting,value
Clc1ccc(Nc2nnc(Cc3ccncc3)c3ccccc23)cc1 [Vatalanib] + C[C@]1(O)C[C@@H](c2nc(-c3ccc4ccc(-c5ccccc5)nc4c3)c3c(N)nccn32)C1 [Linsitinib] (partner 1 µM),relative viability,LCLC-97TM1; first compound 0.04 µM,0.183
same,relative viability,LCLC-97TM1; first compound 0.1265 µM,0.17
same,relative viability,LCLC-97TM1; first compound 0.4 µM,0.189
same,relative viability,LCLC-97TM1; first compound 1.265 µM,0.159
same,relative viability,LCLC-97TM1; first compound 4 µM,0.179
same,relative viability,NCI-H1355; first compound 0.04 µM,0.87
same,relative viability,NCI-H1355; first compound 0.1265 µM,0.818
same,relative viability,NCI-H1355; first compound 0.4 µM,0.915
same,relative viability,NCI-H1355; first compound 1.265 µM,0.772
same,relative viability,NCI-H1355; first compound 4 µM,0.763
same,relative viability,HCC-44; first compound 0.04 µM,0.683
same,relative viability,HCC-44; first compound 0.1265 µM,0.643
same,relative viability,HCC-44; first compound 0.4 µM,0.676
same,relative viability,HCC-44; first compound 1.265 µM,0.636
same,relative viability,HCC-44; first compound 4 µM,0.679
same,relative viability,NCI-H2405; first compound 0.04 µM,0.951
same,relative viability,NCI-H2405; first compound 0.1265 µM,0.901
same,relative viability,NCI-H2405; first compound 1.265 µM,0.868
same,relative viability,NCI-H2405; first compound 4 µM,0.93
same,relative viability,NCI-H23; first compound 0.04 µM,0.533
same,relative viability,NCI-H23; first compound 0.1265 µM,0.659
same,relative viability,NCI-H23; first compound 0.4 µM,0.601
same,relative viability,NCI-H23; first compound 1.265 µM,0.495
same,relative viability,NCI-H23; first compound 4 µM,0.583
same,relative viability,UMC-11; first compound 0.04 µM,1.03
same,relative viability,UMC-11; first compound 0.1265 µM,0.808
same,relative viability,UMC-11; first compound 0.4 µM,1.01
same,relative viability,UMC-11; first compound 1.265 µM,1.04
same,relative viability,UMC-11; first compound 4 µM,0.987
same,relative viability,NCI-H322M; first compound 0.04 µM,0.939
same,relative viability,NCI-H322M; first compound 0.1265 µM,0.83
same,relative viability,NCI-H322M; first compound 0.4 µM,0.975
same,relative viability,NCI-H322M; first compound 1.265 µM,0.959
same,relative viability,NCI-H322M; first compound 4 µM,0.919
same,relative viability,NCI-H1944; first compound 0.04 µM,1.11
same,relative viability,NCI-H1944; first compound 0.1265 µM,0.997
same,relative viability,NCI-H1944; first compound 0.4 µM,1.17
same,relative viability,NCI-H1944; first compound 1.265 µM,1.2
same,relative viability,NCI-H1944; first compound 4 µM,1.23
same,relative viability,NCI-H1395; first compound 0.04 µM,1.14
same,relative viability,NCI-H1395; first compound 0.1265 µM,0.99
same,relative viability,NCI-H1395; first compound 0.4 µM,1.63
same,relative viability,NCI-H1395; first compound 1.265 µM,0.998
same,relative viability,NCI-H1395; first compound 4 µM,0.86
same,relative viability,NCI-H1651; first compound 0.04 µM,0.971
same,relative viability,NCI-H1651; first compound 0.1265 µM,0.927
same,relative viability,NCI-H1651; first compound 0.4 µM,0.94
same,relative viability,NCI-H1651; first compound 1.265 µM,0.948
same,relative viability,NCI-H1651; first compound 4 µM,1.13
same,relative viability,EMC-BAC-2; first compound 0.04 µM,0.817
same,relative viability,EMC-BAC-2; first compound 0.1265 µM,0.762
same,relative viability,EMC-BAC-2; first compound 0.4 µM,0.793
same,relative viability,EMC-BAC-2; first compound 1.265 µM,0.808
same,relative viability,EMC-BAC-2; first compound 4 µM,0.802
same,relative viability,NCI-H650; first compound 0.04 µM,0.942
same,relative viability,NCI-H650; first compound 0.1265 µM,0.77
